Data on six compounds can be found in patent publication US20110144079A1, “ANTIMICROBIAL SYSTEM” (priority 2008, published 2011).

In assay [1] the test system is B. cenocepacia J2315. Nature of the assay: Broth microdilution MIC/MBC. The format is cell-based. As for the experimental part:
(§1) Broth microdilution tests were performed according to NCCLS guidelines. Serial two-fold dilutions of each imidazolium salt (from an original working solution which had been 0.22 μm sterile filtered) in Mueller-Hinton Broth (MHB) (100 μl) were prepared in 96-well micro-titre plates over the range 0.0000625-1% w/v. The inoculum to be tested was prepared by adjusting the turbidity of an actively overnight growing broth culture in MHB to an optical density at 550 nm equivalent to 1×10^8 CFU/ml. The suspension was further diluted to provide a final inoculum density of 2×10^5 CFU/ml in MHB as verified by total viable count. The inoculum to be tested (100 μl, 2×10^5 CFU ml^−1) was added to each well of the microdilution trays which were incubated aerobically for 24 h at 37° C. Positive and negative growth controls were included in every assay (6 replicates). After determining the MICs, minimum bactericidal concentrations (MBCs) were determined by spreading 20 μl of suspension from wells showing no growth onto MHA plates, which were then incubated for 24 h and examined for 99.9% killing.
In general terms: In broth dilution the organism is exposed to a series of concentrations in liquid medium.

The test system of assay [2] is C. tropicalis NCTC 7393. Nature of the assay: Broth microdilution MIC/MBC. The format is cell-based. As to conditions: for MBC: C. tropicalis NCTC 7393, 99.9% killing; for MIC: C. tropicalis NCTC 7393, 24 h at 37° C. As for the experimental part:
as §1

Assay [3] relates to E-MRSA 15. Nature of the assay: Broth microdilution MIC/MBC. As to conditions: for MBC: E-MRSA 15, 99.9% killing; for MIC: E-MRSA 15, 24 h at 37° C. The format is cell-based. On the procedure: as §1
The test system of assay [4] is E. coli NCTC 8196. Nature of the assay: Broth microdilution MIC/MBC. As to conditions: for MBC: E. coli NCTC 8196, 99.9% killing; for MIC: E. coli NCTC 8196, 24 h at 37° C. The format is cell-based. As for the experimental part:
as §1

For assay [5], the system named is K. aerogenes NCTC 7427. Nature of the assay: Broth microdilution MIC/MBC. The format is cell-based. As to conditions: for MBC: K. aerogenes NCTC 7427, 99.9% killing; for MIC: K. aerogenes NCTC 7427, 24 h at 37° C. As for the experimental part:
as §1

In assay [6] the test system is P. aeruginosa PA01. Nature of the assay: Broth microdilution MIC/MBC. The format is cell-based. The note with it: for MBC: P. aeruginosa PA01, 99.9% killing; for MIC: P. aeruginosa PA01, 24 h at 37° C., read-out: MIC. As for the experimental part:
as §1

For assay [7], the system named is P. mirabilis NCTC 12442. Nature of the assay: Broth microdilution MIC/MBC. The format is cell-based. As to conditions: for MBC: P. mirabilis NCTC 12442, 99.9% killing; for MIC: P. mirabilis NCTC 12442, 24 h at 37° C. As for the experimental part: as §1
Assay [8] concerns S. aureus ATCC 29213. Nature of the assay: Broth microdilution MIC/MBC. The note with it: for MBC: S. aureus ATCC 29213, 99.9% killing; for MIC: S. aureus ATCC 29213, 24 h at 37° C. The format is cell-based. As for the experimental part: as §1
In assay [9] the test system is S. epidermidis ATCC 12228. Nature of the assay: Broth microdilution MIC/MBC. The format is cell-based. The note with it: for MBC: S. epidermidis ATCC 12228, 99.9% killing; for MIC: S. epidermidis ATCC 12228, 24 h at 37° C. As for the experimental part: as §1
Assay [10] concerns S. epidermidis ATCC 35984. Nature of the assay: Broth microdilution MIC/MBC. The format is cell-based. As to conditions: for MBC: S. epidermidis ATCC 35984, 99.9% killing; for MIC: S. epidermidis ATCC 35984, 24 h at 37° C. As for the experimental part:
as §1

Assay [11] concerns MRSA. Nature of the assay: Broth microdilution MIC/MBC. The format is cell-based, methicillin-resistant S. aureus. On the procedure: as §1
Assay [12] has as its system B. cereus. Nature of the assay: Broth microdilution MIC/MBC. The format is cell-based. The note with it: for MBC: 99.9% killing; for MIC: 24 h at 37° C. On the procedure: as §1
Assay [13] concerns S. aureus PIII. Nature of the assay: Broth microdilution MIC. The format is cell-based. As for the experimental part:
as §1

Assay [14] concerns B. cereus. Nature of the assay: Biofilm assay (Calgary Biofilm Device), MBEC. The format is cell-based. The note with it: B. cereus 24 h biofilm, 24 h challenge. On the procedure:
(§2) Biofilms of each test organism were grown in the Calgary Biofilm Device (commercially available as the MBEC Assay™ for Physiology & Genetics, Innovotech Inc., Edmonton, Alberta, Canada). The device, a micro-titre plated based assay, consists of two parts; a microtitre plate containing the inoculated test medium and a polystyrene lid with 96 identical pegs on which the microbial biofilm forms under gyrorotary incubation. The biofilm assay was conducted according to the MBEC™ assay protocol as supplied by the manufacturer, with slight modifications. Inocula of each test organism were prepared in MHB as described above and adjusted to provide a final inoculum density of ˜10^7 CFU ml^−1 (as confirmed by viable count). 150 μl of the inoculated media was transferred to each well of the 96-well microtitre plate and the assay plate lid, bearing 96 pegs was placed into the microtitre plate. The MBEC assay plates were placed in a gyrorotary incubator (37° C., 95% relative humidity) for 24 h to permit growth and comparison of 24 h biofilms of each test strain. Positive and negative growth controls were included in each plate (6 replicates). Initial and 24 h planktonic viable counts were measured, as were 24 h biofilm counts, expressed as CFU peg^−1, according to manufacturers instructions. After 24 h, the peg lid of the MBEC assay plate was gently rinsed three times. After rinsing, the peg lid of the MBEC assay was transferred to a ‘challenge’ plate. Serial dilutions of each imidazolium salt were prepared in 200 μl of MHB containing various concentrations of IL in each well. Positive growth control and sterility control were included in each assay plate. […] Biofilms were dislodged into recovery media by sonication for 5 minutes and the peg lid discarded. The recovery plate is incubated overnight and visually checked after 24 h for turbidity. In addition, optical density measurements for each plate were recorded at 550 nm. Clear wells were taken as evidence of biofilm eradication and the MBEC value was assigned as the lowest concentration at which no growth was observed after 24 h incubation. Plates were incubated for a further 24 h to confirm biofilm eradication concentrations.

Assay [15] concerns C. tropicalis NCTC 7393. Nature of the assay: Biofilm assay (Calgary Biofilm Device), MBEC. The format is cell-based. As to conditions: C. tropicalis NCTC 7393 24 h biofilm, 24 h challenge. As for the experimental part: as §2
Assay [16] has as its system E-MRSA 15. Nature of the assay: Biofilm assay (Calgary Biofilm Device), MBEC. The format is cell-based. The note with it: E-MRSA 15 24 h biofilm, 24 h challenge. As for the experimental part:
as §2

Assay [17] deals with E. coli NCTC 8196. Nature of the assay: Biofilm assay (Calgary Biofilm Device), MBEC. The format is cell-based. The note with it: E. coli NCTC 8196 24 h biofilm, 24 h challenge. On the procedure: as §2
In assay [18] the test system is K. aerogenes NCTC 7427. Nature of the assay: Biofilm assay (Calgary Biofilm Device), MBEC. The format is cell-based. As to conditions: K. aerogenes NCTC 7427 24 h biofilm, 24 h challenge. As for the experimental part: as §2
Assay [19] relates to P. aeruginosa PA01. Nature of the assay: Biofilm assay (Calgary Biofilm Device), MBEC. The format is cell-based. As to conditions: P. aeruginosa PA01 24 h biofilm, 24 h challenge. On the procedure:
as §2

Assay [20] relates to P. mirabilis NCTC 12442. Nature of the assay: Biofilm assay (Calgary Biofilm Device), MBEC. The format is cell-based. As to conditions: P. mirabilis NCTC 12442 24 h biofilm, 24 h challenge. As for the experimental part: as §2
In assay [21] the test system is S. aureus PIII. Nature of the assay: Biofilm assay (Calgary Biofilm Device), MBEC. As to conditions: S. aureus PIII 24 h biofilm, 24 h challenge. The format is cell-based. On the procedure: as §2
Assay [22] relates to S. epidermidis ATCC 35984. Nature of the assay: Biofilm assay (Calgary Biofilm Device), MBEC. The format is cell-based. As to conditions: S. epidermidis ATCC 35984 24 h biofilm, 24 h challenge. As for the experimental part: as §2
The subject of assay [23] is MRSA. Nature of the assay: Zone of inhibition on MRSA-seeded agar culture plates. The format is cell-based, methicillin-resistant S. aureus. The note with it: 40 μL of ionic liquid applied to MRSA-seeded agar culture plates. The source says: As used herein, CyMIMCI, refers to 1-alkyl-3-methyl-imidazolium chloride ionic liquids, wherein the alkyl group is a straight chain alkyl group having y carbon atoms.

Some results are limits rather than exact numbers.

What is called MBC is the lowest tested concentration that kills the bacteria rather than only halting them. A word on the MIC: it is the least concentration at which growth counts as inhibited. Consider `CCCCCCn1cc[n+](C)c1.[Cl-]` [1-alkyl-3-methylimidazolium chlorides 6], for which the MBC was more than 1644 µM in assay [1] (B. cenocepacia J2315, 99.9% killing); more than 1644 µM in [2]; more than 1644 µM in assay [3]; more than 1644 µM in assay [4]; more than 1644 µM in [5]; more than 1644 µM in assay [6]. Besides, the MBC in assay [7], in assay [8], in assay [9], in [10] and in [11] (99.9% killing) was more than 1644 µM each time. In addition, the MIC in [1] (B. cenocepacia J2315, 24 h at 37° C.) is on record as more than 1644 µM; in assay [2], more than 1644 µM; in assay [3], more than 1644 µM; in assay [4], more than 1644 µM; in assay [5] it was more than 1644 µM; in assay [6], more than 1644 µM. The MIC in assay [7], in assay [8], in assay [9], in [10] and in [11] (24 h at 37° C.) was more than 1644 µM each time.
On to `CCCCCCCC[n+]1cccc2ccccc21.[Br-]` [1-alkyl-3-quinolinium bromides 8], for which the MBC was found to be 726 µM in [12]; 363 µM in assay [2]; 484 µM in assay [3]; 242 µM in assay [4]; 242 µM in [5]; 605 µM in assay [6]. Moreover, the MBC in [7] was determined as 363 µM; in assay [8], 484 µM; in assay [9], 242 µM; in [10] it was 242 µM. Also, the minimum inhibitory concentration (MIC) in assay [12] was found to be 484.78 µM; in assay [2], 242 µM; in assay [3], 242 µM; in [4], 121.2 µM; in assay [5], 60 µM; in assay [6], 484.78 µM. The MIC in assay [7] amounted to 242 µM; in assay [8], 242 µM; in [9] it was 121.2 µM; in [10] it was 121.2 µM; in [13], 242 µM. The MBEC in assay [14] turned out to be 7826 µM; in assay [15], 7826 µM; in assay [16] it was 7826 µM; in [17], 8315 µM; in assay [18], 9782 µM; in [19], 8315 µM. The figures for the MBEC in assay [20], in [21] and in assay [22] were 7826 µM, 7826 µM and 3913 µM, respectively.
`CCCCCCCCCC[n+]1cccc2ccccc21.[Br-]` [1-alkyl-3-quinolinium bromides 10]: the MBC in assay [12] worked out at 278.7 µM; in [2], 111.48 µM; in assay [3], 111.48 µM; in [4], 167.22 µM; in [5], 167.22 µM; in assay [6], 446 µM. The MBC in [7] stood at 167.22 µM; in assay [8], 111.48 µM; in assay [9] it was 111.48 µM; in assay [10] it was 111.48 µM. Besides, the MIC in [12] is listed as 223 µM; in [2], 55.74 µM; in assay [3], 55.74 µM; in [4], 55.74 µM; in assay [5], 55.74 µM; in [6] it was 223 µM. For the same compound, the MIC in assay [7] was 111.5 µM; in assay [8], 111.5 µM; in assay [9], 55.74 µM; in [10] it was 55.74 µM; in [13] it was 111.5 µM. Further, the MBEC in assay [14] was 3584 µM; in assay [15], 1792 µM; in assay [16] it was 1792 µM; in [17], 3584 µM; in assay [18] it was 4568 µM; in assay [19] it was 1792 µM. Also, the MBEC in assay [20] turned out to be 3584 µM; in assay [21] it was 1956 µM; in [22], 896 µM.
For `CCCCCCCCCCCCCCCCCC[n+]1cccc2ccccc21.[Br-]` [1-alkyl-3-quinolinium bromides 18], the MIC turned out to be 419.52 µM in assay [12]; 104.88 µM in assay [2]; 209.76 µM in assay [3]; 104.88 µM in [4]; 104.88 µM in assay [5]; 419.52 µM in [6]. The MIC worked out at 104.88 µM in assay [7], 104.88 µM in [10] and 209.76 µM in assay [13]. Moreover, the MBEC in [14] came to 3356.16 µM; in assay [15], 1678.08 µM; in assay [16], 1678.08 µM; in assay [17], 1678.08 µM; in assay [18], 6712.32 µM; in assay [19], 6712.32 µM. Further, the MBEC came out at 3356.16 µM in assay [20], 3356.16 µM in assay [21] and 1678.08 µM in [22].
Consider `CCCCCCCCCCCCCCCCn1cc[n+](C)c1.[Cl-]` [C16MIMCl], for which the “Zone Of Inhibition Radius” value in [23] is reported as 6 mm.
For the compound `CCCCCCCCCCCCCCCCCCn1cc[n+](C)c1.[Cl-]` [C18MIMCl], the “Zone Of Inhibition Radius” value in assay [23] amounted to 10 mm.
